The values below come from ChEMBL document CHEMBL5223185, “Squaramide Tethered Clindamycin, Chloroquine, and Mortiamide Hybrids: Design, Synthesis, and Antimalarial Activity” (ACS Med Chem Lett, 2023).

The subject of series [1] is Plasmodium falciparum. The series can be described thus: Antiplasmodial activity against sorbitol-synchronized post ring stage chloroquine, mefloquine and pyrimethamine resistant plasmodium falciparum Dd2 assessed as inhibition of parasite growth incubated for 72 to 96 hrs by parasite susceptibility based microplate reader assay. The series is classed as functional, organism-based.

For series [2], the system named is Plasmodium falciparum. The series can be described thus: Antiplasmodial activity against sorbitol-synchronized post ring stage plasmodium falciparum 3D7 assessed as inhibition of parasite growth incubated for 72 to 96 hrs by parasite susceptibility based microplate reader assay. The series is classed as functional, organism-based.
A short description of series [3]: Fold resistance,ratio of IC50 for antiplasmodial activity against chloroquine, mefloquine and pyrimethamine resistant plasmodium falciparum Dd2 to IC50 for antiplasmodial activity against plasmodium falciparum 3D7. In kind it is functional.
The nature of series [4]: Hemolytic activity in human RBC assessed as hemolysis at 0.39 to 12.8 uM incubated for 72 hrs by microplate reader assay. In kind it is toxicity, cell-based. The following applies: erythrocyte, dose 0.39-12.8 µM.

Square brackets hold non-standard residues; d marks the D form. Peptide text beside a SMILES is read from it.

For `CCN(CCCC(C)Nc1ccnc2cc(Cl)ccc12)CCNc1c(NCCN(CC)CCCC(C)Nc2ccnc3cc(Cl)ccc23)c(=O)c1=O` (configuration not stated), the concentration for half-maximal inhibition (IC50) (as a rule, the concentration that gives 50% inhibition) in the series on Plasmodium falciparum [1] is 80.9 nM; in the series on Plasmodium falciparum [2], 31.3 nM. Moreover, the Ratio in series [3] came out at 2.6. In addition, the Activity result in series [4] was “Non-Toxic”.

With `CCC[C@@H]1C[C@@H](C(=O)N[C@@H]([C@H]2O[C@H](SC)[C@H](O)[C@@H](O)[C@H]2O)[C@H](C)Cl)N(C)C1` [CLINDAMYCIN], in the series on Plasmodium falciparum [2], the IC50 was 8.81 nM.

Regarding `CCN(CCCC(C)Nc1ccnc2cc(Cl)ccc12)CCN=[N+]=[N-]` (configuration not stated), the IC50 in the series with Plasmodium falciparum [1] is 18 nM; with Plasmodium falciparum [2], 2.8 nM. Also, the Ratio in series [3] is 6.5. Moreover, the Activity entry in series [4] is reported as “Non-Toxic”.

Regarding `CCC[C@@H]1C[C@@H](C(=O)N[C@@H]([C@H]2O[C@H](SC)[C@H](O)[C@@H](O)[C@H]2O)[C@@H](C)N=[N+]=[N-])N(C)C1`, the figures for the IC50 with Plasmodium falciparum [1] and in the series on Plasmodium falciparum [2] were 28.6 nM and 29.4 nM, respectively. In addition, the Ratio in series [3] was determined as 1. Moreover, the Activity result in series [4] is given as “Non-Toxic”.

With `CC[C@@H](C)[C@H]1NC(=O)[C@@H](C)NC(=O)[C@H](Cc2ccccc2)NC(=O)[C@@H](CC(C)C)NC(=O)[C@@H](C(C)C)NC(=O)[C@H](Cc2ccccc2)NC(=O)[C@@H]([C@H](C)CC)NC1=O` (cyclo(F[dA][dI][dI]F[dV][dL])), the results for the half-maximal inhibitory concentration (IC50) in the series with Plasmodium falciparum [1] and with Plasmodium falciparum [2] were 940 nM and 1310 nM, respectively. Moreover, the Ratio in series [3] is 0.7.

Turning to `CCOc1c(NCCN(CC)CCCC(C)Nc2ccnc3cc(Cl)ccc23)c(=O)c1=O` (configuration not stated), the half-maximal inhibitory concentration (IC50) is 1060 nM in the series on Plasmodium falciparum [1] and 63.8 nM with Plasmodium falciparum [2]. Besides, in series [3], the Ratio was determined as 16.6. In addition, the Activity result in series [4] is given as “Non-Toxic”.

As for `CCN(CCCC(C)Nc1ccnc2cc(Cl)ccc12)CCNc1c(NCCCC[C@H](NC(C)=O)C(=O)OC)c(=O)c1=O` (some centres not stated), the values for the half-maximal inhibitory concentration (IC50) in the series on Plasmodium falciparum [1] and with Plasmodium falciparum [2] were 680 nM and 223 nM, respectively. In addition, the Ratio in series [3] came out at 3. For the same compound, the Activity entry in series [4] is on record as “Non-Toxic”.

For the compound `CCN(CCN)CCCC(C)Nc1ccnc2cc(Cl)ccc12` (configuration not stated), the figures for the IC50 in the series on Plasmodium falciparum [1] and with Plasmodium falciparum [2] were 285 nM and 16.7 nM, respectively. Moreover, in series [3], the Ratio was found to be 17.1. Further, the Activity entry in series [4] is given as “Non-Toxic”.

As for `CCC[C@@H]1CC(C(=O)N[C@@H](C2O[C@H](SC)[C@H](O)[C@@H](O)[C@H]2O)[C@@H](C)Nc2c(NCCN(CC)CCCC(C)Nc3ccnc4cc(Cl)ccc34)c(=O)c2=O)N(C)C1` (some centres not stated), the concentration for half-maximal inhibition (IC50) was 1010 nM with Plasmodium falciparum [1] and 129 nM in the series on Plasmodium falciparum [2]. The Ratio in series [3] is 7.8. In addition, in series [4], the Activity entry is on record as “Non-Toxic”.
